Where a name gives a salt, the structure may show the parent alone. Read-outs that look alike come from different tables or passages of the source.
Legend:
HCT116 = assay: Inhibition of cancer cell proliferation (MTT); format: cell-based, human
SH-SY5Y = assay: Inhibition of cancer cell proliferation (MTT); format: cell-based, human
Outline: (§1)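 Growth inhibition over 72 h was measured in attached cultures (3000 per well) with 0.08% DMSO as the control. Viable cells were detected with a 2 h MTT step, and the concentration giving 50% inhibition was taken as GI50.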

SK-N-SH = assay: Inhibition of cancer cell proliferation (MTT); format: cell-based, human
Outline: as §1

U-87MG = assay: Inhibition of cancer cell proliferation (MTT); format: cell-based, human
Outline: as §1

[1] = Blood brain barrier permeation; format: in vivo, ICR mice; conditions: mouse, 10 mg/kg, oral once 10 mg/kg
Method: Using 9-week-old male ICR mice, the compounds obtained in the above Examples were orally administered once at a dose of 10 mg/kg or 30 mg/kg, and after 1 hr and 4 hrs, the concentrations of the compounds in the blood and brain of the mice were determined. 3 ICR mice were assigned in each group. Plasma was separated from the blood obtained after sacrificing the mice at each time, the brain of the mice was extracted, and the […] was washed with PBS, followed by pulverizing the brain tissue. The blood was placed in a test tube containing heparin to prevent coagulation and then was centrifuged at 12,000 rpm at 4° C. for 3 min to give a supernatant from which plasma was collected. Brain tissue was weighed, and the brain was pulverized using Dounce's homogenizer after adding 3 times as much volume of PBS as the brain weight. Each of the obtained analytical samples was quantitatively analyzed using a tandem liquid chromatography-mass spectrometer (Tandem LC/MS/MS, API3000 & Agilent 1100 series). Brain permeability of a compound is expressed as a value obtained by dividing the concentration of the compound in the brain by the concentration of the compound in the plasma (B/P ratio), and when the B/P ratio is greater than 1, it means that the concentration in the brain is higher than the one in the blood.

CDK1/cyclinB = target: T1, CDK1/cyclinB (Homo sapiens, UniProt P06493); assay: Inhibition of CDK enzyme activity (ADP-Glo kinase assay); format: biochemical; conditions: 10 uM ATP, histone H1 substrate
T1 construct: purchased Merck Millipore
Method: (§2) Test compounds were prepared by dissolving the compounds obtained in the above Examples in dimethylsulfoxide (DMSO) at a concentration of 10 mM. The test compounds were diluted to 200 nM, 50 nM, […], 3.13 nM, 0.78 nM, and 0.2 nM and used in an enzyme reaction.
(§3) CDK enzyme reaction was conducted in a buffer containing 50 mM Tris-HCl (pH 7.5), 10 mM MgCl2, 1 mM EGTA, 1 mM EDTA, and 2 mM DTT. CDK1/cyclinB, CDK2/cylcinE, CDK5/p25, and CDK6/cyclinD3 enzymes commercially available from Merck Millipore were used for CDK1, CDK2, CDK5, and CDK6 enzymes, respectively, and CDK4/cyclinD1 enzyme commercially available from Signalchem (US) was used for CDK4. For CDK1, a reaction proceeded by adding 10 nM CDK1/cyclinB and 0.125 mg/ml histone H1 (Merck Millipore) substrate to the buffer and then adding 10 uM ATP thereto. For CDK2, a reaction was proceeded by adding 10 nM CDK2/cyclinE and 0.125 mg/ml histone H1 substrate to the buffer and then adding 10 uM ATP thereto. For CDK5, a reaction was proceeded by adding 10 nM CDK5/p25 and 0.125 mg/ml histone H1 substrate to the buffer and then adding 10 uM ATP thereto. For CDK4, a reaction was proceeded by adding 20 nM CDK4/cyclinD1 and 0.125 mg/ml Rb protein (Merck Millipore) to the buffer and then adding 10 uM ATP thereto. For CDK6, a reaction was proceeded by adding 50 nM CDK6/cyclinD3 and 0.125 mg/ml histone H1 substrate to the buffer and then adding 10 uM ATP thereto. Each enzyme reaction was incubated at 30° C. for 60 min. Then, the amount of ADP produced was measured using Victor X4 instrument (Perkin Elmer) after generating luminescence using ADP-Glo kinase assay kit (Promega, US). An inhibition effect on each enzyme was represented as a percentage of the luminescence value in the presence of the test compounds relative to the luminescence value without the test compounds. IC50 (nM) is the concentration of the compound to inhibit 50% of the enzyme activity.

CDK2/cyclinE = target: T2, CDK2/cyclinE (Homo sapiens, UniProt P24941); assay: as above; format: biochemical; conditions: 10 uM ATP, histone H1 substrate
T2 construct: purchased Merck Millipore
Method: as §2, §3

CDK4/cyclinD1 = target: T3, CDK4/cyclinD1 (Homo sapiens, UniProt P11802); assay: as above; format: biochemical; conditions: 10 uM ATP, Rb protein substrate; read-out: IC50 CDK4/cyclinD
T3 construct: purchased Signalchem (US)
Method: as §2, §3

CDK5/p25 = target: T4, CDK5/p25 (Homo sapiens, UniProt Q00535); assay: as above; format: biochemical; conditions: 10 uM ATP, histone H1 substrate
T4 construct: purchased Merck Millipore
Method: as §2, §3

CDK6/cyclinD3 = target: T5, CDK6/cyclinD3 (Homo sapiens, UniProt Q00534); assay: as above; format: biochemical; conditions: 10 uM ATP, histone H1 substrate; read-out: IC50 CDK6/cyclinD
T5 construct: purchased Merck Millipore
Method: as §2, §3

T98G = assay: Inhibition of cancer cell proliferation (MTT); format: cell-based, human
Outline: as §1

A549 = assay: Inhibition of cancer cell proliferation (MTT); format: cell-based, human
Outline: as §1

NCI-H23 = assay: Inhibition of cancer cell proliferation (MTT); format: cell-based, human
Outline: as §1

Tau protein = assay: Inhibition of Tau phosphorylation (Western blot, pSer202) in SH-SY5Y cells; format: cell-based; conditions: 4 hrs
Method: SH-SY5Y cells expressing Tau protein were cultured in DMEM containing 10% FBS. 2.5×10^6 cells were placed in a 6-well plate and incubated at 5% CO2 and 37° C. for 16 hrs. The compounds obtained in the above Examples serially diluted ⅓ from 3 uM to 0.5 nM or the compounds in a concentration of 0.3, 0.1, 0.03, 0.01, 0.003 uM were treated for 4 hrs in DMEM containing 5% FBS. After 4 hrs, the culture solution was removed, washed with PBS, and cells were lysed by adding 100 ul of lysis buffer. The lysis buffer consisted of 50 mM Tris-HCl (pH 7.5), 150 mM NaCl, 5 mM EDT, 1 mM EGTA, 50 mM NaF, 1 mM PMSF, 1 mM Na3VO4, 2.5 mM DTT, 1% Triton X-100, and Protease inhibitor (Pierce). The lysed cells were centrifuged at 10,000 rpm and 4° C. for 10 min and the proteins in the supernatant were quantified. 25 ug of the proteins were electrophoresed on a SDS-PAGE gel and transferred to PVDF (Amersharm) membrane. The PVDF membrane was immersed in T-PBS containing 10% skim milk and shaken for 1 hr at room temperature. The primary antibody, Phosph-Tau[pSer202] (Abcam), diluted 1:1500 in T-PBS solution containing 5% skim milk was reacted with the membrane at room temperature for 2 hrs. The membrane was washed with T-PBS. The secondary antibody, Anti-rabbit IgG HRP, diluted 1:5000 was added to the membrane, reacted at room temperature for 1 hr, and washed.

T3 sequence (P11802 whole entry): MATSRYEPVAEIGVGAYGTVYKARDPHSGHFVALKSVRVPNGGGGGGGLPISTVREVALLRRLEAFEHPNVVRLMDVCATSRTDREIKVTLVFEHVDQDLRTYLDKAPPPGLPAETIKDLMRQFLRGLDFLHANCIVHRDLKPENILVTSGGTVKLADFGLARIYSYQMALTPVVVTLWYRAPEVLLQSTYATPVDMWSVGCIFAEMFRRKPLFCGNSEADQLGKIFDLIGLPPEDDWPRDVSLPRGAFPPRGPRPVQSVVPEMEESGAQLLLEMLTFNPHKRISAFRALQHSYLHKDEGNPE
T3 sequence (P24385 whole entry partner): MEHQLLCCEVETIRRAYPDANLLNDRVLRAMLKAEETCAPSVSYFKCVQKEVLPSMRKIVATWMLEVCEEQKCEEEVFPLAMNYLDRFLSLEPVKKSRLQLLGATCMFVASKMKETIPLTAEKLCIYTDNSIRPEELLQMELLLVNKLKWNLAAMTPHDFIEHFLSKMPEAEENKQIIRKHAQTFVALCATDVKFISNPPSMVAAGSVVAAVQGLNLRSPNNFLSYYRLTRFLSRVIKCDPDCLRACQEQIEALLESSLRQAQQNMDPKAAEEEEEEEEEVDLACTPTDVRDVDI
T1 sequence (P06493 whole entry): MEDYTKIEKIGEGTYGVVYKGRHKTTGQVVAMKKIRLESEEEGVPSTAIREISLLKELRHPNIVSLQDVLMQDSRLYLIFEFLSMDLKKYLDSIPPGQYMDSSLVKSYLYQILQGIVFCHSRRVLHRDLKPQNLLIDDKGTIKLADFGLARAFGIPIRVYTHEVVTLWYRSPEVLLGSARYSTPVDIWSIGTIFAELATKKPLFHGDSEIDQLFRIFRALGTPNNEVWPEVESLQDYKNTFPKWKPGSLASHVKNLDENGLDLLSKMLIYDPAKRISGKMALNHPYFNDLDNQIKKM
T1 sequence (P14635 whole entry partner): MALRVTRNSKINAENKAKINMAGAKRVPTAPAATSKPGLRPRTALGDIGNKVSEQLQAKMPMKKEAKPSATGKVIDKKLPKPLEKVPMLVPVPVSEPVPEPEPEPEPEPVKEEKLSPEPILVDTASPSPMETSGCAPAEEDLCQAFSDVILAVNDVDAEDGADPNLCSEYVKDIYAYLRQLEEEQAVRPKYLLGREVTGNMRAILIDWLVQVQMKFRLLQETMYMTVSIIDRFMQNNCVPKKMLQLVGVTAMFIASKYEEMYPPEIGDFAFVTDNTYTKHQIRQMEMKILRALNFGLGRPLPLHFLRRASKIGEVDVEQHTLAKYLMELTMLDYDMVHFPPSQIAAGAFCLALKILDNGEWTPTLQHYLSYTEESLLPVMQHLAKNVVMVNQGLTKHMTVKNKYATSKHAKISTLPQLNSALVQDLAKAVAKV
T4 sequence (Q00535 whole entry): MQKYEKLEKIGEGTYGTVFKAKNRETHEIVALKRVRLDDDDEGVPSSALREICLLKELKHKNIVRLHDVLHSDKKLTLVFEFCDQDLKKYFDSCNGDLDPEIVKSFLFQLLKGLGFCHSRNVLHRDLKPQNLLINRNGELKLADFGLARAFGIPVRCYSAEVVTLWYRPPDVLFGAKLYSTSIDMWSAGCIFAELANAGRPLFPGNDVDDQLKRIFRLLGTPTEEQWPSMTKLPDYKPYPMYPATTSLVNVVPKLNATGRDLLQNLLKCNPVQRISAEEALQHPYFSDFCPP
T4 sequence (Q15078 99-307 partner limits assumed): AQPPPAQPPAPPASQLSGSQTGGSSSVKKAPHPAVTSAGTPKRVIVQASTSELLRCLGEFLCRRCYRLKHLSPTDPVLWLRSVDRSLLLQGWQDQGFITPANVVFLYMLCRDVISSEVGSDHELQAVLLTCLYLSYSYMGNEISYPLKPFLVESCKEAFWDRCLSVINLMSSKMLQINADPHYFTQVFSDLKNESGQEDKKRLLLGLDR
T5 sequence (Q00534 whole entry): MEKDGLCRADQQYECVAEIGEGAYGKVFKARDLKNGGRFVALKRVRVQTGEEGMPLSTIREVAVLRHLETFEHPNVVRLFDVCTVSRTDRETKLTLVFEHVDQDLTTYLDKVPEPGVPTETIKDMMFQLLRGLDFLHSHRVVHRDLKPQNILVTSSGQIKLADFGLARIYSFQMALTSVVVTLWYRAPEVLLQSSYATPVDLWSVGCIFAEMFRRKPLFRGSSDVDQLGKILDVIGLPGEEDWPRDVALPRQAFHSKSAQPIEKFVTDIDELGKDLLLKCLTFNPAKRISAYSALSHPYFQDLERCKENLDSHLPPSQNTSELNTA
T5 sequence (P30281 whole entry partner): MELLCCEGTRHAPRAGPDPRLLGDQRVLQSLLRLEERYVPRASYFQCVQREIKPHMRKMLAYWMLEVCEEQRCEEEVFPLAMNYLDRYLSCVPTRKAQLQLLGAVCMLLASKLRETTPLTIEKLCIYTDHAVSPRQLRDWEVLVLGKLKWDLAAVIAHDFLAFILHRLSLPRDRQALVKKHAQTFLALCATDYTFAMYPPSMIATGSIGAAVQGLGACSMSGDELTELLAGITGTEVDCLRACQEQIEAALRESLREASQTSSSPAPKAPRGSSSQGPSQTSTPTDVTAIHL

SMILES | GI50 (HCT116; 72 hrs) | GI50 (SH-SY5Y; 72 hrs) | GI50 (SK-N-SH; 72 hrs) | GI50 (U-87MG; 72 hrs) | GI50 (HCT116; Homo sapiens, HCT-116, 72 h) | GI50 (SH-SY5Y; Homo sapiens, SH-SY5Y, 72 h) | GI50 (SK-N-SH; Homo sapiens, SK-N-SH, 72 h) | GI50 (U-87MG; Homo sapiens, U-87 MG, 72 h) | other results
Nc1nccc(-c2nc(-c3ccnc(N)c3F)ccc2O)n1 [Example 67, 2′-amino-6-(2-aminopyrimidin-4-yl)-3′-fluoro-[2,4′-bipyridin]-5-ol acetate] | 10 nM | 10 nM | 20 nM | 90 nM |  |  |  |  | concentration at 1 h ([1]; male, ICR, brain, po, 1 hr, read-out: Concentration in the brain): 55.1 ng/g; Kp at 1 h ([1]; male, ICR, brain/plasma, po, 1 hr, read-out: B/P ratio): 2.21; Kp at 4 h ([1]; male, ICR, brain/plasma, po, 4 hrs, read-out: B/P ratio): 3.97; concentration at 1 h ([1]; male, ICR, plasma, po, 1 hr, read-out: Concentration in the plasma): 24.9 ng/mL; Concentration in the brain ([1]; 4 hrs): 15.5 ng/g; Concentration in the plasma ([1]; 4 hrs): 3.9 ng/mL
Nc1nccc(-c2nc(-c3ccnc(N)c3O)ccc2O)n1 [Example 21, 2′-amino-6-(2-aminopyrimidin-4-yl)-[2,4′-bipyridin]-3′,5-diol] |  |  |  |  | 140 nM | 110 nM | 310 nM | 890 nM | IC50 (CDK1/cyclinB): 6.1 nM; IC50 (CDK2/cyclinE): 4.5 nM; IC50 (CDK4/cyclinD1): 403 nM; IC50 (CDK5/p25): 1.5 nM; IC50 (CDK6/cyclinD3): 73.6 nM
Nc1cccc(-c2ccc(O)c(-c3ccnc(N)n3)n2)c1 [Example 16, 6-(3-aminophenyl)-2-(2-aminopyrimidin-4-yl)pyridin-3-ol] |  |  |  |  | 1330 nM | 570 nM | 2910 nM | 3600 nM | 
Nc1nccc(-c2nc(-c3cccc(O)c3)ccc2O)n1 [Example 13, 2-(2-aminopyrimidin-4-yl)-6-(3-hydroxyphenyl)pyridin-3-ol] |  |  |  |  | 6970 nM | 680 nM | 7220 nM | 4600 nM | 
Nc1nccc(-c2nc(-c3ccc(O)cc3F)ccc2O)n1 [Example 70, 2-(2-aminopyrimidin-4-yl)-6-(2-fluoro-4-hydroxyphenyl)pyridin-3-ol 2hydrochloride] | 530 nM | 160 nM | 580 nM | 1650 nM |  |  |  |  | 
Nc1nccc(-c2nc(-c3ccc(O)c(F)c3F)ccc2O)n1 [Example 20, 2-(2-aminopyrimidin-4-yl)-6-(2,3-difluoro-4-hydroxyphenyl)pyridin-3-ol] |  |  |  |  | 520 nM | 190 nM | 390 nM | 1180 nM | GI50 (T98G; Homo sapiens, T98G, 72 h): 4310 nM
CN1CCC(c2cc(-c3nc(-c4ccnc(N)c4F)ccc3O)nc(N)n2)CC1 [Example 34, 2′-amino-6-(2-amino-6-(1-methylpiperidin-4-yl)pyrimidin-4-yl)-3′-fluoro-[2,4′-bipyridin]-5-ol] | 20 nM |  |  | 30 nM |  |  |  |  | IC50 (CDK1/cyclinB): 2.1 nM; IC50 (CDK2/cyclinE): 2.2 nM; IC50 (CDK4/cyclinD1): 31.5 nM; IC50 (CDK5/p25): 2.2 nM; IC50 (CDK6/cyclinD3): 176 nM; GI50 (A549; 72 hrs): 40 nM; GI50 (NCI-H23; 72 hrs): 70 nM; GI50 (T98G; 72 hrs): 150 nM; Phosphorylation (%) of Tau (Tau protein; 0.003 uM): 103%; Phosphorylation (%) of Tau (Tau protein; 0.01 uM): 27%; Phosphorylation (%) of Tau (Tau protein; 0.03 uM): 13%; Phosphorylation (%) of Tau (Tau protein; 0.1 uM): 21%; Phosphorylation (%) of Tau (Tau protein; 0.3 uM): 21%
Nc1nccc(-c2cc(-c3ccnc(N)n3)c(O)cn2)n1 [Example 3, 4,6-bis(2-aminopyrimidin-4-yl)pyridin-3-ol] |  |  |  |  | 1150 nM | 880 nM | 1430 nM | 2640 nM | 
Nc1nccc(-c2nc(-c3ccncc3F)ccc2O)n1 [Example 14, 6-(2-aminopyrimidin-4-yl)-3′-fluoro-[2,4′-bipyridin]-5-ol] |  |  |  |  | 590 nM | 540 nM | 1040 nM | 3410 nM | 
Nc1nccc(-c2nc(-c3ccnc(N)c3F)ccc2O)n1 [Example 69, 2′-amino-6-(2-aminopyrimidin-4-yl)-3′-fluoro-[2,4′-bipyridin]-5-ol 2malonate] | 80 nM | 4 nM | 20 nM | 90 nM |  |  |  |  | 
Nc1nccc(-c2nc(-c3ccnc(N)c3F)ccc2O)n1 [Example 68, 2′-amino-6-(2-aminopyrimidin-4-yl)-3′-fluoro-[2,4′-bipyridin]-5-oloxalate] | 10 nM | 10 nM | 30 nM | 100 nM |  |  |  |  | 
Nc1nc(-c2nc(-c3ccnc(N)c3F)ccc2O)cc(N2CCOCC2)n1 [Example 51, 2′-amino-6-(2-amino-6-morpholinopyrimidin-4-yl)-3′-fluoro-[2,4′-bipyridin]-5-ol] |  |  |  |  | 3 nM |  |  | 10 nM | IC50 (CDK1/cyclinB): 1 nM; IC50 (CDK2/cyclinE): 4.5 nM; IC50 (CDK4/cyclinD1): 81.3 nM; IC50 (CDK5/p25): 2.8 nM; IC50 (CDK6/cyclinD3): 35.8 nM; GI50 (A549; Homo sapiens, A549, 72 h): 10 nM; GI50 (NCI-H23; Homo sapiens, NCI-H23, 72 h): 10 nM; GI50 (T98G; Homo sapiens, T98G, 72 h): 10 nM
